Legend:
SKN-1::GFP = assay: Accumulation of SKN-1::GFP in intestinal nuclei in response to oxidative stress (skn-1::gfp transgenic worms); format: in vivo, C. elegans
Protocol: To create transgenic skn-1::gfp strains, 2.5, 10, or 50 ng/μl of transgene DNA (FIG. 5A) was injected into N2 animals at along with 100 ng/μl of pRF4 to generate extrachromosomal transgenic lines. Two different extrachromosomal arrays, Ex001 and Ex007, generated with 2.5 and 10 ng/μl of SKN-1::GFP, respectively, were integrated into the chromosome by UV irradiation (400 J/m2) to produce the insertion strains Is001 and Is007, respectively. To rescue the embryonic lethality of a skn-1 mutation, SKN-1::GFP was injected into skn-1(zu67)/DnT1 animals at 2.5 ng/μl with 100 ng/μl of the pRF4 marker. […] To analyze expression and localization of SKN-1::GFP in response to oxidative stress, skn-1::gfp transgenic worms were treated as described above for the gcs-1::gfp expression studies. […] These worms were scored for presence of SKN-1::GFP in intestinal nuclei 5 minutes later. […] To discriminate intestinal autofluorescence from SKN-1::GPP epifluorescence, a triple band emission filter set (Chroma 61000) was used in conjunction with a narrow band excitation filter (484/14 nm). This combination allowed autofluorescence to be detected as yellow/orange fluorescence deriving from a combined green and red signal, while GFP remained green. Worms that carried skn-1::gfp, gcs-1::gfp and gcs-1::gfp mutant transgenes were incubated with 50 μg/ml DiI (Molecular Probes) in M9 for 3 hours at 20° C., then transferred to fresh plates for 1 hour to destain, and examined under the fluorescence microscope. The ASI chemosensory neurons were identified by according to their intensity of DiI labeling and location relative to other DiI-labeled cells.

[1] = tested on: GCS-1::GFP expression in the intestine; assay: Induction of GCS-1::GFP expression in the intestine by oxidative stress (transgenic worms, fluorescence microscopy); format: in vivo, C. elegans; conditions: for percentage of animals with high intestinal GCS-1::GFP expression / percentage of animals with low intestinal GCS-1::GFP expression / percentage of animals with medium intestinal GCS-1::GFP expression: 1 mM paraquat in the agar, 20° C., 3 days, mixed L2-young adult worms
Protocol: Transgenic strains were generated by injecting DNA into the gonad of young adult animals as described in Mello et al. (EMBO Journal 10: 3959-3970 (1991)). gcs-1::gfp transgene constructs (FIG. 3A) were injected at 50 ng/μl along with the rol-6 marker (pRF4) at 100 ng/μl. Between three and six independent extrachromosomal lines were generated and analyzed for each gcs-1::gfp construct. To investigate GCS-1::GFP expression in the skn-1(zu67) background, rol-6-marked gcs-1::gfp hermaphrodites were mated with N2 males, then their transgenic progeny were crossed with skn-1(zu67)/DnT1 hermaphrodites, which have an unc phenotype. After transgenic males were successively crossed twice with skn-1(zu67)/DnT1 hermaphrodites, unc; rol F3 hermaphrodite progeny were selected. From this population, skn-1(zu67)/DnT1; gcs-1::gfp animals were identified on the basis of their non-unc; rol progeny laying dead eggs. Two different gcs-1:gfp lines were thereby crossed into the skn-1(zu67) background and examined for GFP expression. DIC and fluorescence images were acquired with a Zeiss AxioSKOP2 microscope and AxioCam cooled color digital camera.
To investigate expression of gcs-1::gfp and mutant transgenes, worms were exposed to oxidative stress under the following conditions. For heat shock, worms cultured at 20° C. were transferred onto prewarmed seeded plates and incubated at 29° C. for 20 hours, then examined by fluorescence microscopy for GFP expression. gcs-1::gfp induction was also observed in an alternative heat treatment protocol, during which worms cultured at 20° C. were transferred onto prewarmed plates and incubated at 34° C. for 2 to 4 hours, then returned to 20° C. and examined for GFP expression hourly during a four hour recovery period. In the experiments described in Table 2, young adults were transferred to plates that contained 1 mM paraquat in the agar and maintained at 20° C. for 3 days prior to analysis. In an alternative induction protocol, worms that carried gcs-1::gfp or the mutant transgenes shown in FIG. 3A were incubated in M9 either with or without 100 mM paraquat for 30 minutes, then allowed to recover on plates for four hours.

[2] = tested on: C. elegans pathway mediated by SKN-1; conditions: in vivo
[3] = 2 mM, immobilization for photography, during the times examined (data not shown)
[4] = paraquat, treated as for the gcs-1::gfp studies, mixed-stage L2-young adult worms

SMILES: c1ccc([C@H]2CN3CCSC3=N2)cc1 [Levamisole]
- SKN-1::GFP relocalization by immobilization agent (SKN-1::GFP; [3]): did not stimulate
- GCS-1::GFP induction by immobilization agent [1, 3]: did not stimulate

SMILES: C[n+]1ccc(-c2cc[n+](C)cc2)cc1 [Paraquat, paraquat (methyl viologen)]
- SKN-1::GFP in the ASI neurons after exposure (SKN-1::GFP; ASI neurons, after exposure to paraquat): neither the location nor intensity of SKN-1::GFP was detectably altered
- SKN-1::GFP in intestinal cell nuclei after exposure (SKN-1::GFP; in a high percentage of animals, particularly anteriorly and posteriorly, after exposure to paraquat): elevated levels of SKN-1::GFP
- percentage of animals with high SKN-1::GFP in intestinal nuclei (SKN-1::GFP; [4]): 3.1%
- percentage of animals with low SKN-1::GFP in intestinal nuclei (SKN-1::GFP; [4]): 53.1%
- percentage of animals with medium SKN-1::GFP in intestinal nuclei (SKN-1::GFP; [4]): 43.8%
- intestinal gcs-1::gfp expression, alternative induction protocol ([1]; 100 mM paraquat in M9 for 30 minutes, four hours recovery on plates): induction of intestinal gcs-1::gfp expression
- percentage of animals with high intestinal GCS-1::GFP expression ([1]; gcs-1::gfp transgene): 18.4%
- percentage of animals with low intestinal GCS-1::GFP expression ([1]; gcs-1::gfp transgene): 14.5%
- percentage of animals with medium intestinal GCS-1::GFP expression ([1]; gcs-1::gfp transgene): 67.1%
- percentage of animals with high intestinal GCS-1::GFP expression ([1]; gcsΔ2::gfp transgene): 13.1%
- percentage of animals with low intestinal GCS-1::GFP expression ([1]; gcsΔ2::gfp transgene): 21.3%
- percentage of animals with medium intestinal GCS-1::GFP expression ([1]; gcsΔ2::gfp transgene): 65.6%
- GCS-1::GFP in the intestine and ASI neurons of skn-1 homozygotes ([1]; skn-1 homozygotes, after paraquat treatment (data not shown)): absence of GCS-1::GFP

SMILES: [N-]=[N+]=[N-] [Sodium Azide, sodium azide]
- percentage of animals with high SKN-1::GFP in intestinal nuclei (SKN-1::GFP; in vivo): 55.0%
- percentage of animals with low SKN-1::GFP in intestinal nuclei (SKN-1::GFP; in vivo): 0.8%
- percentage of animals with medium SKN-1::GFP in intestinal nuclei (SKN-1::GFP; in vivo): 44.2%

SMILES: C[S+]([O-])CCCCN=C=S (stereo not shown) [sulforaphane]
- response of the SKN-1-mediated pathway [2]: responds
